According to patent US20230330060A1, “COMPOUNDS FOR TREATMENT OF HEART FAILURE” (Sulfateq B.V., priority 2020, published 2023):

How the values were obtained:
H9C2 cardiomyocytes = assay: Quantification of phenylephrine-induced EGFP synthesis as surrogate for cell size (hypertrophy); type: cell-based, rat
Method: Rat H9C2 cardiomyoblasts (ATCC CRL-1446) were maintained in DMEM medium containing 10% fetal bovine serum and 1% Penicillin-Streptomycin solution (Sigma-Aldrich) and passaged when the cultures reach a confluency of 70%. Prior to experiments, H9C2 myoblasts were differentiated to cardiomyocytes by serum reduction (to 1%) and stimulation with 20 nM retinoic acid for 5 days. Differentiated H9C2 cardiomyocytes were seeded at 0.6·10^5 cells/cm^2 for all experiments.
H9C2 cardiomyocytes (0.6·10^5 cells/cm2) were infected with CMV-copGPF (MOI 10) in culture medium without serum for 24 h. H9C2 cardiomyocytes were pre-incubated with 30 μM SUL compounds under standard culture conditions for 30 min and then stimulated with phenylephrine (dose range 2·10^−5 to 1·10^−11 M) for an additional period of 24 h. Thereafter H9C2 cardiomyocytes were lysed in 100 μl soft lysis buffer (25 mM Tris, 2 mM Dithiothreitol, 2 mM EDTA, 1% Triton X-100, pH 7.4). per well and fluorescence intensity of the obtained supernatant was recorded in a CLARIOStar Plus plate reader (BMG Labtech) equipped with a FITC filter set (excitation 488 nm with 10 nm bandwidth; emission 515 with a 20 nm bandwidth).
All experiments were performed in triplicate per condition and averaged. Data obtained from two individual experiments were used for evaluation in GraphPad Prism 8.0 (GraphPad Software Inc, Ca). Average H9C2 cardiomyocyte cell size was associated to average EGFP levels using linear regression. Phenylephrine-induced EGFP synthesis was normalized, using baseline levels as 0% and maximum EGFP recordings as 100%. All datasets were normalized to vehicle controls. 4 parameter non-linear regression was used to determine the efficacy of potency of phenylephrine to induce GFP synthesis. The efficacy of SUL compounds to inhibit phenylephrine-induced EGFP synthesis was calculated as 100%-Emax, wherein Emax is the maximal effect evoked by phenylephrine.

[1] = tested on: doxorubicin-induced heart failure; assay: Cardiac fibrosis (picrosirius red, left-ventricular interstitial fibrosis); type: in vivo, rat; details: doxorubicin rats; SUL-150 via food pellets, prophylaxis or therapeutic group
Method: The SUL-150 solution was sprayed homogeneously over standard food pellets (1.25 kg). […] Food pellets were freshly prepared weekly. With the approximation of 200 mg·kg^-1 SUL-150 in the food pellets and a daily dietary intake of 25 gram for a 350 gram rat, daily dosing of SUL-150 approximates 5 mg·day^-1. Male outbred Wistar rats of 250-300 grams (10-12 weeks old) were kept on a 12 h light/dark cycle and received a standard diet with distilled water ad libitum. Thirty rats were administered with doxorubicin (2 mg·kg^-1) weekly via intraperitoneal injection for 9 consecutive weeks and were left either untreated (standard chow diet, 10 rats), or received a diet supplemented with SUL-150 as prophylaxis (prior to the 1st doxorubicin administration, 10 rats) or therapy (starting after the 6th doxorubicin administration, 10 rats). Sham control rats (8 rats) were administered with saline weekly via intraperitoneal injection for 9 consecutive weeks and received a standard diet. All rats were subjected to cardiac function assessment 12 weeks after the first doxorubicin administration. […] Samples were imaged on a NanoZoomer S60 Digital slide scanner (Hammamatsu Photonics) and left-ventricular interstitial fibrosis (i.e. non-perivascular fibrosis) was quantified using Aperio ImageScope (Leica Biosystems, Nussloch, Germany).

[2] = tested on: doxorubicin-induced heart failure; assay: Cardiac mitochondrial (mtDNA) copy number; type: in vivo, rat; details: doxorubicin rats; administration of SUL-150
Method: SUL-150 (250 mg) was dissolved in 100% EtOH (1.02 ml) and further diluted in distilled water (68.7 ml) to obtain a clear 10 mM solution. The SUL-150 solution was sprayed homogeneously over standard food pellets (1.25 kg). Food pellets were air-dried overnight. Food pellets were freshly prepared weekly. With the approximation of 200 mg·kg^−1 SUL-150 in the food pellets and a daily dietary intake of 25 gram for a 350 gram rat, daily dosing of SUL-150 approximates 5 mg·day^−1.
Male outbred Wistar rats of 250-300 grams (10-12 weeks old) were kept on a 12 h light/dark cycle and received a standard diet with distilled water ad libitum. Thirty rats were administered with doxorubicin (2 mg·kg^−1) weekly via intraperitoneal injection for 9 consecutive weeks and were left either untreated (standard chow diet, 10 rats), or received a diet supplemented with SUL-150 as prophylaxis (prior to the 1st doxorubicin administration, 10 rats) or therapy (starting after the 6th doxorubicin administration, 10 rats). Sham control rats (8 rats) were administered with saline weekly via intraperitoneal injection for 9 consecutive weeks and received a standard diet. […]
Cardiac tissue samples were homogenized in lysis buffer (100 mM NaCl, 10 mM EDTA, 0.5% SDS in 20 mM Tris-HCl, pH 7.4) containing 50 U·ml^−1 RNase I and 100 U·ml^−1 proteinase K (both ThermoFisher, Walthham, MA). […] MtDNA copy number was calculated as: […]

[3] = tested on: mitochondrial complex IV (cytochrome c oxidase); assay: Respiratory complex IV activity in mitochondria isolated from H9C2 cardiomyoblasts; type: cell-based, rat
Method: H9C2 cardiomyoblasts were exposed to 1 μM DOX in the presence or absence of 1 μM SUL-150 under standard cell culture conditions for 24 h. Mitochondria were isolated using density gradient centrifugation using the MitoCheck® Mitochondrial Isolation Kit (Cayman Chemical #701010, Ann Arbor, MI) according to manufacturer's instructions and assessed for the activity of mitochondrial complex IV (cytochrome c oxidase) by measuring the rate of oxidation of cytochrome c, which is reflected by an […] in absorbance at 550 nm (Cayman Chemical #700990, Ann Arbor, MI).

With `Cc1c(C)c2c(c(C)c1O)CC[C@](C)(C(=O)N1CCNCC1)O2` [SUL-150, (R)-(6-hydroxy-2,5,7,8-tetramethylchroman-2-yl)(piperazin-1-yl)methanone] as the compound, how does the “SUL EGFP Inhibition (%)” value (H9C2 cardiomyocytes; 30 μM SUL compound, calculated as 100%-Emax) read?
The value was 66.49%.

What about the “Expression of EGFP induced by phenylephrine (FIG. 3)” value (H9C2 cardiomyocytes; preincubation with 30 μM compound) of the same compound?
Its value is “reduced the expression of EGFP”.

And the “Fibrogenic response in the left ventricle interstitium (collagen deposition), FIG. 4” value [1]?
Its value is “blocks this fibrogenic reaction”.

What about the “Doxorubicin-induced reduction of cardiac mtDNA copy number, FIG. 6B” value [2] of the same compound?
The value was “precluded”.

What about the “Respiratory complex IV activity, FIG. 7” value ([3]; H9C2 cardiomyoblasts co-incubated with doxorubicin and SUL-150, both 1 μM for 24 h) of the same compound?
Its value is “maintains complex IV activity”.

What about the “Respiratory complex IV activity” value ([3]; untreated control H9C2 cardiomyoblasts, SUL-150 1 μM for 24 h) of the same compound?
Its value is “does not alter the activity of respiratory complex IV”.
